Assays:
[1] = molecular target: mGluR5 (Rattus norvegicus, UniProt P31424); test: Intracellular Ca^2+ response/oscillation in mGluR5 transfected HEK293 cells; type: cell-based; parameters: expressed in transfected cells; host or cells: HEK293; settings: no other agonist
Protocol: HEK293 cells were fed on a Dulbecco's Modified Eagle Medium (DMEM) and 10% fetal bovine serum (Invitrogen) and cultured at 37° C. in a humidified incubator with 5% CO2. One day before transfection, HEK293 cells were grown on 22×44 mm coverslips and then were transfected with mGluR5 plasmid (received as a gift from Dr. Randy Hall, Emory University, Atlanta, Ga.) with the aid of lipofectamine 2000 (Invitrogen). mGluR5 transfected HEK293 cells were grown for 48 hours and then loaded with 4 µM Fura-2 AM in loading buffer containing 10 mM HEPES (pH 7.4), 140 mM NaCl, 5 mM KCl, 0.55 mM MgCl2 for 30 minutes at 37° C. The coverslips were then mounted in a bathing chamber on the stage of a fluorescence microscope. […] The ratio of fluorescence emitted at 510 nm resulting from excitation at 340 or 380 nm was analyzed to obtain the [Ca^2+]i response as a function of changes in [Ca^2+]o.
HEK293 cells were cultured and transfected as described above. Intracellular Ca^2+ concentration was recorded using the method as described previously. […]

[2] = molecular target: mGluR1 (Rattus norvegicus, UniProt P23385); test: Fura-2 intracellular calcium release in mGluR1-transfected HEK293 cells (Example 4); type: cell-based; parameters: expressed in transfected cells; host or cells: HEK293; settings: 3 mM/6 mM calcium, after wash with 0 mM calcium
Sequence of mGluR1 (P23385 19-1199): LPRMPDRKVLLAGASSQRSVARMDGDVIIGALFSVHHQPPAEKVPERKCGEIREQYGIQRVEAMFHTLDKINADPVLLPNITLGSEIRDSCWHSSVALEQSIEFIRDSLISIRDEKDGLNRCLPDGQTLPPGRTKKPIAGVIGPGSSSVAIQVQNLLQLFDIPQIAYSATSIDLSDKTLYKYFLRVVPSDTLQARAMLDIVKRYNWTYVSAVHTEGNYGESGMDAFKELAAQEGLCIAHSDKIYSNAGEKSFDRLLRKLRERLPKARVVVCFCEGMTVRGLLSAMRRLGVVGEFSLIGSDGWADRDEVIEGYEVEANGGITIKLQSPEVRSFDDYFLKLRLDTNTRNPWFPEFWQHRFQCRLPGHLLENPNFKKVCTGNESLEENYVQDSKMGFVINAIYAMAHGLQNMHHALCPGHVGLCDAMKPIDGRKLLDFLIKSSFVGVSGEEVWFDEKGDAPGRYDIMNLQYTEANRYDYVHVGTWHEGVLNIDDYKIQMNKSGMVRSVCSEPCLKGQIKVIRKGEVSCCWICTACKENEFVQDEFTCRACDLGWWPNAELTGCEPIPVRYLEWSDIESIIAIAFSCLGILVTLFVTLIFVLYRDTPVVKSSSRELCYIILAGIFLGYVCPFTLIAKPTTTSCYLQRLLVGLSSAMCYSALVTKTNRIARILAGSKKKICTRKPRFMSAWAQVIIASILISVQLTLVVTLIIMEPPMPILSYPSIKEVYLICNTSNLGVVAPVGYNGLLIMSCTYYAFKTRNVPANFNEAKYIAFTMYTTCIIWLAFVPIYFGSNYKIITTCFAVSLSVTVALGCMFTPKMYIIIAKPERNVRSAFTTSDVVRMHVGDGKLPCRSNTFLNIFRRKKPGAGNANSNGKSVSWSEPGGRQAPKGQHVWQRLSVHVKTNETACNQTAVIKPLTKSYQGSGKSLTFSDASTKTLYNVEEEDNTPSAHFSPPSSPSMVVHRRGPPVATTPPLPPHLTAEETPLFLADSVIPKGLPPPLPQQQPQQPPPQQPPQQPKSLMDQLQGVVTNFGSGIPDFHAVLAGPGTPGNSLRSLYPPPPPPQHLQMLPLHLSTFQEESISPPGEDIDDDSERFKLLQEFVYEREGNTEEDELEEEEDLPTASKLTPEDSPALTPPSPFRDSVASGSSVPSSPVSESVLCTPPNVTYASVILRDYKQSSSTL
Protocol: The coverslips with transfected, Fura-2-loaded HEK293 cells were placed diagonally in 3-ml quartz cuvettes containing bath buffer. The fluorescence spectra at 510 nm were measured during stepwise increases in [Ca2+]o with alternating excitation at 340 or 380 nm. The ratio of the intensities of the emitted light at 510 nm when excited at 340 or 380 nm was used to monitor changes in [Ca2+]i. mCherry was genetically fused into mGluR1 pcDNA. so cells have fluorescent intensity at 550 nm was selected for further analysis.

[3] = molecular target: T1, mGluR1α E325I (Rattus norvegicus, UniProt P23385, E325I); test: [^3H]-L-Quis binding to membranes of HEK293 cells expressing E325I; settings: with 300 nM [^3H]-L-Quis, read-out: KD, [Ca^2+]o-binding affinity of mGluR1α
T1 construct: expressed in transfected cells; host or cells: HEK293
T1 sequence (P23385 19-1199 E325I): as the sequence (P23385 19-1199) above, with E307I counted along it

[4] = molecular target: T2, mGluR1α D322I (Rattus norvegicus, UniProt P23385, D322I); test: [^3H]-L-Quis binding to membranes of HEK293 cells expressing D322I; settings: in the presence of 30 nM [^3H]-L-Quis, read-out: KD, [Ca^2+]o-binding affinity of mGluR1α
T2 construct: expressed in transfected cells; host or cells: HEK293
T2 sequence (P23385 19-1199 D322I): as the sequence (P23385 19-1199) above, with D304I counted along it

[5] = molecular target: T3, WT mGluR1α (Rattus norvegicus, UniProt P23385); test: [^3H]-L-Quis binding to membranes of HEK293 cells expressing WT mGluR1α
T3 construct: expressed in transfected cells; host or cells: HEK293
T3 sequence (P23385 19-1199): as the sequence (P23385 19-1199) above

[6] = molecular target: T3, WT mGluR1α; test: Single cell Fura-2 [Ca^2+]i response in HEK293 cells transiently transfected with WT mGluR1α; type: cell-based; settings: for Response to [Ca^2+]o: Maximal Response / Max. Res. to Ca^2+: normalized to maximal response of WT mGluR1α to L-Glu
Protocol: The methods for measuring [Ca^2+]i responses were as described above. In the presence of (s)-MCPG, the cells were incubated with 0.5 mM (s)-MCPG in a saline buffer for 30 more minutes after Fura-2 loading.
Fura-2AM was used for monitoring [Ca^2+]i in real time as described above. […] Cells loaded with Fura-2AM were mounted onto a chamber perfused with saline buffer.

Sequence of mGluR5 (P31424 21-1203): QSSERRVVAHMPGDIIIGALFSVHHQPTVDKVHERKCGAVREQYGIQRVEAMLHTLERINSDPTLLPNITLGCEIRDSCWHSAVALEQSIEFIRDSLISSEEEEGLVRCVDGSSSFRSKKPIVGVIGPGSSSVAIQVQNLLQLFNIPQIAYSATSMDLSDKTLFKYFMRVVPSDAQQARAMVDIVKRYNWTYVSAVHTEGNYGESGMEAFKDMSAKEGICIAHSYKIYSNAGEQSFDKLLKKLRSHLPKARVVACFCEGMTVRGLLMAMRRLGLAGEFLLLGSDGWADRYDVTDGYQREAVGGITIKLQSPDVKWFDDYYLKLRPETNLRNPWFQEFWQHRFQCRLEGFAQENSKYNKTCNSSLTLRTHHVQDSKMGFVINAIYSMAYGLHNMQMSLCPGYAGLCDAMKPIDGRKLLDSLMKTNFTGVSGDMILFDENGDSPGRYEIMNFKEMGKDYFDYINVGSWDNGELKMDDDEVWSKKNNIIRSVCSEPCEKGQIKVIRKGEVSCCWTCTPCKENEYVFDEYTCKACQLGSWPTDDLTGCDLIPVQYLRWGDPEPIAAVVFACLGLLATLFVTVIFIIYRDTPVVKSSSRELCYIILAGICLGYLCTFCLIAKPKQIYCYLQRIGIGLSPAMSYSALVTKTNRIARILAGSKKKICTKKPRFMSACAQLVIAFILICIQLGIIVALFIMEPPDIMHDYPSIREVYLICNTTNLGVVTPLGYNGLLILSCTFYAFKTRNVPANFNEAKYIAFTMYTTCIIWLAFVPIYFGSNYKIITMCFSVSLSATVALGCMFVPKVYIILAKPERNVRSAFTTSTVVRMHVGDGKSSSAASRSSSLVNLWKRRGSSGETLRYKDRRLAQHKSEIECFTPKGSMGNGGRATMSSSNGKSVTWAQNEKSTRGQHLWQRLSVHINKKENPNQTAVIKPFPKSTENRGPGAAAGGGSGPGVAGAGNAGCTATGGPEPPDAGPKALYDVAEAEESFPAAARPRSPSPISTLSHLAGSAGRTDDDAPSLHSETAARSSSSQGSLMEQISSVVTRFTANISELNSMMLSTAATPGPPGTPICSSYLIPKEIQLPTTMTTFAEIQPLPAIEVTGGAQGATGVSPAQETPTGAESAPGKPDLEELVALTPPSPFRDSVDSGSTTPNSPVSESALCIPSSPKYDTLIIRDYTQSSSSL

[Ca+2] [[Ca^2+]o]
Extracellular Ca^2+ concentration change that started to induce intracellular oscillation [1]: 0.05 mM | Activation of mGluR1 by calcium alone [2]: no response was observed | Kd [3]: > 20 mM | Kd [4]: 0.6 mM | Kd ([5]; WT, in the presence of 30 nM [^3H]-L-Quis, read-out: KD, [Ca^2+]o-binding affinity of mGluR1α): 0.3 mM | EC50 ([5]; wild type receptor, read-out: EC50 of [Ca^2+]o for enhancing L-Quis-binding): ~0.3 mM | Fold increase of the EC50 for [Ca^2+]o ([6]; 0 versus 0.5 mM MCPG): ~1.7 fold | EC50 ([6]; 40 μM CPCCOEt, read-out: EC50 of mGluR1α for [Ca^2+]o): 28700 µM | Response to [Ca^2+]o: nHill ([6]; 0.5 mM (s)-MCPG): 2.6 | Response to [Ca^2+]o: Maximal Response ([6]; 0.5 mM (s)-MCPG): 67 ± 2 | EC50 ([6]; 0.5 mM (s)-MCPG, read-out: Response to [Ca^2+]o: EC50): 6000 µM | Response to [Ca^2+]o: nHill ([6]; (s)-MCPG 0): 6.4 | Response to [Ca^2+]o: Maximal Response ([6]; (s)-MCPG 0): 85 ± 2 | EC50 ([6]; (s)-MCPG 0, read-out: Response to [Ca^2+]o: EC50): 3500 µM | Response to [Ca^2+]o: nHill ([6]; CPCCOEt 0): 6.4 | Response to [Ca^2+]o: Maximal Response ([6]; CPCCOEt 0): 85 ± 2% | EC50 ([6]; CPCCOEt 0, read-out: Response to [Ca^2+]o: EC50): 3500 µM | Response to [Ca^2+]o: nHill ([6]; CPCCOEt Conc. 5 (μM)): 1.3 | Response to [Ca^2+]o: Maximal Response ([6]; CPCCOEt Conc. 5 (μM)): 75 ± 3% | EC50 ([6]; CPCCOEt Conc. 5 (μM), read-out: Response to [Ca^2+]o: EC50): 7600 µM | Response to [Ca^2+]o: nHill ([6]; CPCCOEt Conc. 40 (nM)): 1.1 | Response to [Ca^2+]o: Maximal Response ([6]; CPCCOEt Conc. 40 (nM)): 60 ± 3% | Max. Res. to Ca^2+ ([6]; Ro 67-4853 0 nM): 85 ± 2 | EC50 ([6]; Ro 67-4853 0 nM, read-out: EC50 of Ca^2+): 3500 µM | Max. Res. to Ca^2+ ([6]; Ro 67-4853 30 nM): 83 ± 6 | EC50 ([6]; Ro 67-4853 30 nM, read-out: EC50 of Ca^2+): 2100 µM | Max. Res. to Ca^2+ ([6]; Ro 67-4853 300 nM): 83 ± 2 | EC50 ([6]; Ro 67-4853 300 nM, read-out: EC50 of Ca^2+): 700 µM | EC50 ([6]; in the presence of 5 μM CPCCOEt, read-out: EC50 of mGluR1α for [Ca^2+]o): 14700 µM

From patent US10449216B2, “Modulating drug effects against metabotropic glutamate receptor with extracellular calcium” (GEORGIA STATE UNIVERSITY RESEARCH FOUNDATION, INC., priority 2013, dated 2019)
